# Literature values as cited in patent US20240041838A1, “METHODS AND COMPOSITIONS FOR INHIBITION OF NEUTROPHIL RECRUITMENT IN MYCOCARDIAL ISCHEMIA-REPERFUSION INJURY” (University of Connecticut, priority 2022, published 2024).
# System: I/R-induced ventricular arrhythmia
# Conditions: reported; cited from earlier work
compound,measurement,value
CCN(CC)CCCC(C)Nc1nc(C)cc(Nc2ccc3nc(C)cc(N)c3c2)n1 (stereo not shown) [NSC23766],I/R-induced ventricular arrhythmia,decreased
